molecular target: SphK1 (Homo sapiens, UniProt Q9NYA1); experiment: SphK1 kinase assay, 384-well flashplate (biochemical assay); settings: IC50 ranges; 5 nM modified SphK1, 800 nM omega-biotinyl-D-erythro-sphingosine, 1 μM ATP, 30° C., 120 min; read-out: SphK1 Inhibition IC50
Experimental: Tests for the Inhibition of the SphK1 Activity
The kinase assay is carried out as a 384-well flashplate assay.
5 nM modified SphK1, 800 nM omega-biotinyl-D-erythro-sphingosine and 1 μM ATP (with 0.3 μCi of ^33P-ATP/well) are incubated in a total volume of 50 μl (25 mM HEPES, 5 mM MgCl2, 1 mM dithiothreitol, 0.01% of Brij35, 0.1% of BSA (fatty acid-free), pH 7.4) without or with test substance (5-10 concentrations) at 30° C. for 120 min. The reaction is terminated using 25 μl of 200 mM EDTA solution, filtered off with suction at room temperature after 30 min, and the cavities are washed 3 times with 100 μl of 0.9% NaCl solution. The non-specific proportion of the kinase reaction (blank) is determined using 0.5 mM NaCl. Radioactivity is measured in topcount. IC50 values are calculated using RS1.

Chain of SphK1 (Q9NYA1 9-364 limits assumed): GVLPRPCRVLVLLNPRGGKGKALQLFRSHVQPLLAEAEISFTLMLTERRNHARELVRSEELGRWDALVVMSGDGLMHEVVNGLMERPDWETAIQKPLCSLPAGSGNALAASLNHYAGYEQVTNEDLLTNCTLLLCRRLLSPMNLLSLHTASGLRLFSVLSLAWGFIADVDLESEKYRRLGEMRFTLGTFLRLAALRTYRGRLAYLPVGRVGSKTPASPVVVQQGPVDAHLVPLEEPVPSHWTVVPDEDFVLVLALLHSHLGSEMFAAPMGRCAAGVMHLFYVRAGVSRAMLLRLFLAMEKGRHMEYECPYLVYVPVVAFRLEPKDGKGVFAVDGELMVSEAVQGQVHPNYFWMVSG

Row | Structure (SMILES) | IC50
1 | CC1(C)CCC(C)(C)c2cc(-c3cccc(N4CCN(CCCCO)CC4)n3)ccc21 | < 0.1 µM
2 | CC1(C)CCC(C)(C)c2cc(-c3ncnc(N4CCC(NCCCCO)CC4)n3)ccc21 [4-{1-[4-(5,5,8,8-Tetramethyl-5,6,7,8-tetrahydronaphthalen-2-yl)-1,3,5-triazin-2-yl]piperidin-4-ylamino}butan-1-ol] | < 0.1 µM
3 | CC1(C)CCCc2cc(-c3cccc(N4CCN(CCCCO)CC4)n3)ccc21 [4-{4-[6-(5,5-Dimethyl-5,6,7,8-tetrahydronaphthalen-2-yl)pyridin-2-yl]-piperazin-1-yl}butan-1-ol] | > 1 µM
4 | CC1(C)CCC(C)(C)c2cc(-c3ncnc(N4CCC(N)CC4)n3)ccc21 | < 0.1 µM
5 | CC1(C)CCC(C)(C)c2cc(-c3cc(N4CCNCC4)ccn3)ccc21 | 0.1 to 1 µM
6 | CC1(C)CCC(C)(C)c2cc(-c3ccnc(N4CCNCC4)c3)ccc21 | 0.1 to 1 µM
7 | CC1(C)CCC(C)(C)c2cc(-c3nccc(N4CCN(CCCO)CC4)n3)ccc21 | 0.1 to 1 µM
8 | CC1(C)CCCc2cc(-c3ncnc(N4CCNCC4)n3)ccc21 [2-(5,5-Dimethyl-5,6,7,8-tetrahydronaphthalen-2-yl)-4-piperazin-1-yl-1,3,5-triazine] | > 1 µM
9 | Cc1ccc(-c2ccc3c(c2)C(C)(C)CCC3(C)C)cc1N1CCNCC1 | > 1 µM
10 | CC1(C)CCC(C)(C)c2cc(-c3cccc(C4CCNCC4)n3)ccc21 [6-(5,5,8,8-Tetramethyl-5,6,7,8-tetrahydronaphthalen-2-yl)-1′,2′,3′,4′,5′,6′-hexahydro-2,4′-bipyridinyl] | 0.1 to 1 µM
11 | CC1(C)CCC(C)(C)c2cc(-c3cccc(N4CCN(CCCCO)CC4)c3)ccc21 | 0.1 to 1 µM
12 | CC1(C)CCCc2ccc(-c3cccc(N4CCNCC4)n3)cc21 [1-[6-(8,8-Dimethyl-5,6,7,8-tetrahydronaphthalen-2-yl)pyridin-2-yl]-piperazine] | > 1 µM
13 | CC1(C)CCC(C)(C)c2cc(-c3cccc(N4CCC(N)CC4)n3)ccc21 [6′-(5,5,8,8-Tetramethyl-5,6,7,8-tetrahydronaphthalen-2-yl)-3,4,5,6-tetrahydro-2H-1,2′-bipyridinyl-4-ylamine] | 0.1 to 1 µM
14 | CC1(C)CCCc2ccc(-c3cccc(N4CCN(CCCCO)CC4)n3)cc21 [4-{4-[6-(8,8-Dimethyl-5,6,7,8-tetrahydronaphthalen-2-yl)pyridin-2-yl]-piperazin-1-yl}butan-1-ol] | > 1 µM
15 | CC1(C)CCC(C)(C)c2cc(-c3cccc(N4CCN(CCCCCOC(=O)CN)CC4)c3)ccc21 | 0.1 to 1 µM
16 | CC1(C)CCc2cc(-c3cccc(N4CCNCC4)n3)ccc21 [1-[6-(1,1-Dimethylindan-5-yl)pyridin-2-yl]piperazine] | > 1 µM
17 | CC1(C)CCC(C)(C)c2cc(-c3cccc(N4CCC(N5CCCC(O)C5)CC4)n3)ccc21 (stereo not shown) [6″-(5,5,8,8-Tetramethyl-5,6,7,8-tetrahydronaphthalen-2-yl)-3,4,5,6,3′,4′,5′,6′-octahydro-2H,2′H-[1,4′;1′,2″]terpyridin-3-ol] | 0.1 to 1 µM
18 | CC1(C)CCc2cc(-c3cccc(N4CCN(CCCCCO)CC4)n3)ccc21 [5-{4-[6-(1,1-Dimethylindan-5-yl)pyridin-2-yl]piperazin-1-yl}pentan-1-ol] | > 1 µM
19 | CC1(C)CCC(C)(C)c2cc(-c3cc(N4CCN(CCCCO)CC4)ccn3)ccc21 | 0.1 to 1 µM
20 | CC1(C)CCCc2cc(-c3cccc(N4CCN(CCCCCO)CC4)n3)ccc21 [5-{4-[6-(5,5-Dimethyl-5,6,7,8-tetrahydronaphthalen-2-yl)pyridin-2-yl]-piperazin-1-yl}pentan-1-ol] | 0.1 to 1 µM
21 | COCCOc1ccc(-c2ccc3c(c2)C(C)(C)CCC3(C)C)nc1N1CCN(CCCCCO)CC1 | > 1 µM
22 | COCCOc1ccc(-c2ccc3c(c2)C(C)(C)CCC3(C)C)nc1N1CCNCC1 | > 1 µM
23 | CC1(C)CCC(C)(C)c2cc(-c3cccc(N4CCNCC4)c3)ccc21 [1-[3-(5,5,8,8-Tetramethyl-5,6,7,8-tetrahydronaphthalen-2-yl)phenyl]-piperazine] | 0.1 to 1 µM
24 | CC1(C)CC(C)(C)c2cc(-c3cccc(N4CCN(CCCCCO)CC4)n3)ccc21 [5-{4-[6-(1,1,3,3-Tetramethylindan-5-yl)pyridin-2-yl]piperazin-1-yl}-pentan-1-ol] | 0.1 to 1 µM
25 | CC1(C)CCC(C)(C)c2cc(-c3ccnc(N4CCN(CCCCO)CC4)c3)ccc21 | 0.1 to 1 µM

Row | Structure (SMILES) | IC50
26 | CC1(C)CCCc2ccc(-c3cccc(N4CCN(CCCCCO)CC4)n3)cc21 [5-{4-[6-(8,8-Dimethyl-5,6,7,8-tetrahydronaphthalen-2-yl)pyridin-2-yl]-piperazin-1-yl}pentan-1-ol] | > 1 µM
27 | CC1(C)CCC(C)(C)c2cc(-c3cccc(N4CCC(NCCCCCO)CC4)n3)ccc21 [5-[6′-(5,5,8,8-Tetramethyl-5,6,7,8-tetrahydronaphthalen-2-yl)-3,4,5,6-tetrahydro-2H-1,2′-bipyridinyl-4-ylamino]pentan-1-ol] | 0.1 to 1 µM
28 | CC1(C)CCC(C)(C)c2cc(-c3cccc(N4CCN(CCCCCO)CC4)c3)ccc21 | < 0.1 µM
29 | CC1(C)CCC(C)(C)c2cc(-c3ncnc(N4CCC(N5CCCC(O)C5)CC4)n3)ccc21 (stereo not shown) [1′-[4-(5,5,8,8-Tetramethyl-5,6,7,8-tetrahydronaphthalen-2-yl)-1,3,5-triazin-2-yl]-1,4′-bipiperidinyl-3-ol] | 0.1 to 1 µM
30 | CC1(C)CCC(C)(C)c2cc(-c3ccnc(N4CCNCC4)n3)ccc21 [2-Piperazin-1-yl-4-(5,5,8,8-tetramethyl-5,6,7,8-tetrahydronaphthalen-2-yl)pyrimidine] | 0.1 to 1 µM
31 | CC1(C)CCc2cc(-c3cccc(N4CCN(CCCCO)CC4)n3)ccc21 [4-{4-[6-(1,1-Dimethylindan-5-yl)pyridin-2-yl]piperazin-1-yl}butan-1-ol] | > 1 µM
32 | CC1(C)CCC(C)(C)c2cc(-c3ncnc(N4CCNCC4)n3)ccc21 [2-Piperazin-1-yl-4-(5,5,8,8-tetramethyl-5,6,7,8-tetrahydronaphthalen-2-yl)-1,3,5-triazine] | < 0.1 µM
33 | CC1(C)CCC(C)(C)c2cc(-c3ncnc(N4CCN(CCCCCO)CC4)n3)ccc21 | < 0.1 µM
34 | CC1(C)CCC(C)(C)c2cc(-c3ncnc(N4CCN(CCCCO)CC4)n3)ccc21 [4-{4-[4-(5,5,8,8-Tetramethyl-5,6,7,8-tetrahydronaphthalen-2-yl)-1,3,5-triazin-2-yl]piperazin-1-yl}butan-1-ol] | < 0.1 µM
35 | CC1(C)CCCc2cc(-c3cccc(N4CCNCC4)n3)ccc21 [1-[6-(5,5-Dimethyl-5,6,7,8-tetrahydronaphthalen-2-yl)pyridin-2-yl]-piperazine] | > 1 µM
36 | CC1(C)CCCc2ccc(-c3ncnc(N4CCNCC4)n3)cc21 [2-(8,8-Dimethyl-5,6,7,8-tetrahydronaphthalen-2-yl)-4-piperazin-1-yl-1,3,5-triazine] | > 1 µM
37 | CC1(C)CC(C)(C)c2cc(-c3cccc(N4CCNCC4)n3)ccc21 [1-[6-(1,1,3,3-Tetramethylindan-5-yl)pyridin-2-yl]piperazine] | 0.1 to 1 µM
38 | CC1(C)CCCc2cc(-c3cccc(N4CCN(CCCO)CC4)n3)ccc21 [3-{4-[6-(5,5-Dimethyl-5,6,7,8-tetrahydronaphthalen-2-yl)pyridin-2-yl]-piperazin-1-yl}propan-1-ol] | > 1 µM
39 | CC1(C)CCC(C)(C)c2cc(-c3nccc(N4CCNCC4)n3)ccc21 [4-Piperazin-1-yl-2-(5,5,8,8-tetramethyl-5,6,7,8-tetrahydronaphthalen-2-yl)pyrimidine] | 0.1 to 1 µM
40 | CC1(C)CC(C)(C)c2cc(-c3cccc(N4CCN(CCCCO)CC4)n3)ccc21 [4-{4-[6-(1,1,3,3-Tetramethylindan-5-yl)pyridin-2-yl]piperazin-1-yl}-butan-1-ol] | 0.1 to 1 µM
41 | C[C@H]1CN(c2cccc(-c3ccc4c(c3)C(C)(C)CCC4(C)C)c2)CCN1 | 0.1 to 1 µM
42 | CC1(C)CCC(C)(C)c2cc(-c3cncc(N4CCNCC4)n3)ccc21 [6′-(5,5,8,8-Tetramethyl-5,6,7,8-tetrahydronaphthalen-2-yl)-3,4,5,6-tetrahydro-2H-1,2′-bipyrazinyl] | > 1 µM
43 | CC1(C)CCC(C)(C)c2cc(-c3cccc(N4CCC(N5CCC(N)C5)CC4)n3)ccc21 (stereo not shown) [1-[6′-(5,5,8,8-Tetramethyl-5,6,7,8-tetrahydronaphthalen-2-yl)-3,4,5,6-tetrahydro-2H-1,2′-bipyridinyl-4-yl]pyrrolidin-3-ylamine] | < 0.1 µM
44 | CC1(C)CCC(C)(C)c2cc(-c3cccc(N4CCNCC4)n3)ccc21 [1-[6-(5,5,8,8-Tetramethyl-5,6,7,8-tetrahydronaphthalen-2-yl)pyridin-2-yl]piperazine] | 0.1 to 1 µM
45 | CC1(C)CCC(C)(C)c2cc(-c3cccc(N4CCN(C[C@@H](N)CO)CC4)n3)ccc21 | > 1 µM
46 | CC1(C)CCC(C)(C)c2cc(-c3ncnc(N4CCC(N5CCC(N)C5)CC4)n3)ccc21 (stereo not shown) [1-{1-[4-(5,5,8,8-Tetramethyl-5,6,7,8-tetrahydronaphthalen-2-yl)-1,3,5-triazin-2-yl]piperidin-4-yl}pyrrolidin-3-ylamine] | 0.1 to 1 µM
47 | CC1(C)CCC(C)(C)c2cc(-c3cccc(N4CCN(CCCCCO)CC4)n3)ccc21 | < 0.1 µM
48 | CC1(C)CCC(C)(C)c2cc(-c3cccc(N4CCC(NCCCCO)CC4)n3)ccc21 [4-[6′-(5,5,8,8-Tetramethyl-5,6,7,8-tetrahydronaphthalen-2-yl)-3,4,5,6-tetrahydro-2H-1,2′-bipyridinyl-4-ylamino]butan-1-ol] | < 0.1 µM
49 | CC1(C)CCC(C)(C)c2cc(-c3cccc(N4CCN(CCCO)CC4)n3)ccc21 [3-{4-[6-(5,5,8,8-Tetramethyl-5,6,7,8-tetrahydronaphthalen-2-yl)-pyridin-2-yl]piperazin-1-yl}propan-1-ol] | 0.1 to 1 µM
